Paper PMC4962012, “Pretrichodermamides D–F from a Marine Algicolous Fungus Penicillium sp. KMM 4672” (Marine Drugs, 2016)

Assays:
[1] = test system: a number of different cancer cells; design: method as in PMID 26039736; conditions: up to 10 µM; cited from earlier work
[2] = MTT cytotoxicity assay, LNCaP cells; assay type: cell-based; conditions: human, LNCaP prostate cancer cells
Method: (§1) The human prostate cancer cells lines 22Rv1, PC-3, and LNCaP were purchased from ATCC. Cell lines were cultured according to the manufacturers instructions in 10% FBS/RPMI media (Invitrogen) with (for LNCaP) or without (for 22Rv1 and PC-3) 1 mM sodium pyruvate (Invitrogen). Cells were continuously kept in culture for a maximum of 3 months and were routinely inspected microscopically for stable phenotype and regularly checked for contamination with mycoplasma. Cell line authentication was performed by DSMZ (Braunschweig, Germany) using highly polymorphic short tandem repeat loci.
(§2) The in vitro cytotoxicity of individual substances was evaluated using the MTT (3-(4,5-dimethylthiazol-2-yl)-2,5-diphenyltetrazolium bromide) assay, which was performed as previously described. Cytotoxicity against CD-I mouse splenocytes was determined according to Freshney. Docetaxel was used as a reference substance.

[3] = MTT cytotoxicity assay, 22Rv1 cells; assay type: cell-based; conditions: human, 22Rv1 prostate cancer cells
Method: as §1, §2

CD-I mouse erythrocytes = assay: Hemolytic activity; assay type: cell-based
Method: The hemolytic activity was evaluated using CD-I mouse erythrocytes as previously described.

[4] = test system: human prostate cancer 22Rv1 cells; assay: Apoptosis induction analysis (flow cytometry, PI staining, sub-G1 peak); assay type: cell-based; conditions: treatment with 1 µM for 48 h
Method: as §1
The cell cycle distribution was analyzed by flow cytometry using PI staining as described before with slight modifications. In brief, cells were pre-incubated overnight in 6-well plates (2 × 10^5 cells/well in 2 mL/well). The medium was changed to fresh medium containing different concentrations of the substances. After 48 h of treatment, cells were harvested with a trypsin-EDTA solution, fixed with 70% EtOH, stained, and analyzed by FACS. The results were quantitatively analyzed using Cell Quest Pro software (Version 5.2.1., BD Bioscience, Bedford, MA, USA). Cells appeared at sub-G1 peak were assumed as apoptotic.

CD-I mouse splenocytes = assay: Cytotoxicity against mouse splenocytes; assay type: cell-based; conditions: non-malignant murine splenocytes
Method: as §2

[5] = MTT cytotoxicity assay, PC-3 cells; assay type: cell-based; conditions: human, PC-3 prostate cancer cells
Method: as §1, §2

SMILES	cytotoxic effect against a number of different cancer cells [1]	IC50 [2]	IC50 [3]	hemolytic activity (CD-I mouse erythrocytes; murine erythrocytes, up to 100 µM)	ED50 (erythrocytes) (CD-I mouse erythrocytes; non-malignant murine erythrocytes)	apoptosis [4]	ED50 (cytotoxicity for splenocytes) (CD-I mouse splenocytes)	IC50 [5]
COc1ccc(C2SSC34CC5(O)C(Cl)C=CC(O)C5ON3C(=O)C2N(C)C4=O)c(O)c1OC (centres unmarked) [compound 5, N-methylpretrichodermamide B]	did not show any cytotoxic effect	1.76 µM	0.51 µM	did not show hemolitic activity	> 100 µM	31.3% ± 8.2	62.1 µM	5.11 µM
CC(=O)O[C@@]12CO[C@@H]1C[C@H](O)[C@@]1(C)C(=O)[C@H](O)C3=C(C)[C@@H](OC(=O)[C@H](O)[C@@H](NC(=O)OC(C)(C)C)c4ccccc4)C[C@@](O)([C@@H](OC(=O)c4ccccc4)[C@H]21)C3(C)C [docetaxel, reference compound]	–	0.004 µM	0.013 µM	–	–	–	–	0.015 µM
